In patent publication US20050187196A1, “Treatment of attention disorders” (Saegis Pharmaceuticals, Inc., priority 2004, published 2005):

Key:
wildtype mice = conditions: d-amphetamine at the same dose as in coloboma mice; cited from earlier work
coloboma mice (Cm/+) = conditions: open field test; d-amphetamine at low doses; cited from earlier work
[1] = system: coloboma mutant mice (Cm/+); assay: Open field test, coloboma mutant mice; type: in vivo, mouse; conditions: for frequency of zone crossings / total distance traveled / locomotor activity: final 30 min
From the text: (§1) Male and female mice heterozygous for the coloboma spontaneous mutation (C3H/HeSnJ-Cm/J) and wild type (C3H/HeSNJ) mice from Jackson Laboratories (Bar Harbor, Me.) were used in this study. Upon receipt, mice were assigned unique identification numbers (tail marked) and were housed in polycarbonate cages with filter tops. All mice were acclimated to the colony room for at least two weeks prior to testing. During the period of acclimation, mice were examined on a regular basis, handled, and weighed to assure adequate health and suitability. Mice were maintained on a 12/12 light/dark cycle. Chow and water were provided ad libitum for the duration of the study. In each test, animals were randomly assigned across treatment groups and balanced by age and by gender. Animals were not disturbed between test days.
(§2) The open field test (OF) is used to assess both anxiety-like behavior and motor activity. The open field chambers are Plexiglas square chambers (27.3×27.3×20.3 cm; Med Associates Inc., St Albans, Vt.) surrounded by infrared photobeam sources (16×16×16). The enclosure was configured to split the open field into a center and periphery zone and the photocell beams were set to measure activity in the center and in the periphery of the OF chambers. Animals having higher levels of anxiety or lower levels of activity tend to stay in the corners of the OF enclosures. On the other hand, mice that have high levels of activity and low levels of anxiety tend to spend more time in the center of the enclosure. Distance traveled is measured from consecutive beam breaks. Measures of peripheral or central distance covered during locomotion were used as an index of activity.
(§3) ABPA (0.3, 3 and 30 mg/kg) and atomoxetine (0.1 mg/kg) were dissolved in saline and administered i.p. at the injection volume of 10 ml/kg. Mice were pretreated with saline, ABPA, or atomoxetine for 30 min, after which their behavior was recorded in the OF chambers for a 60-min test session. At the end of each open field test session the OF chambers were thoroughly cleaned with Clorox wipes. Mice were returned to their home cage after testing and then to the colony room. Mice were retested every week. The washout period between tests ranged from 3-7 days. Data were analyzed by analysis of variance (ANOVA), followed by Fisher PLSD post-hoc analysis when appropriate. An effect was considered significant if p<0.05. Outliers that fell above and below two standard deviations away from the mean were removed from the final analysis.
(§4) Since the effects of all drugs reached a stable response by 20-30 min following the start of the experiment, the data was analyzed in 2 time periods: 1) total 60 min test session and 2) the last 30 min of the test session. The quantified data over the final 30 min time period are presented. Repeated measure ANOVA found a significant genotype and drug interaction over both time periods. As measured by total distance traveled, the coloboma mice had roughly 6- to 10-fold higher saline-induced activity compared to the wildtype mice (11,246±3213 centimeters vs. 1035±252 centimeters, FIGS. 3A and 3B).

[2] = system: patients diagnosed with adult ADHD; conditions: cited from earlier work
[3] = system: striatal dopamine release; conditions: administration in the substantia nigra pars reticulata (SNr); cited from earlier work
[4] = system: dopamine (DA) neurons in the ventral tegmental area (VTA); conditions: systemic administration; cited from earlier work
patients with MCI = assay: CANTAB tests of psychomotor speed, clinical trials; type: in vivo, human
Description: (§5) A clinical trial was initiated to determine the effect of the GABAB receptor antagonist, ABPA, on specific tests of cognition in non-demented older individuals with diminished memory function who met prospective criteria for mild cognitive impairment (MCI). Patients aged 60-85 with MCI enrolled in this double-blind, randomized trial. Patients were randomized to ABPA (600 mg tid) or placebo for 8 weeks. Verbal, paper and computer tests of memory and cognition were made by trained assessors at baseline (before administration of ABPA or placebo) and after 2, 5, and 8 weeks of treatment. Among these were selected tests from the Cambridge Neuropsychological Test Automated Battery (CANTAB), a computerized battery of tests for neuropsychological evaluation (Robbins et al., 1994, “Cambridge Neuropsychological Test Automated Battery (CANTAB): A factor analytic study of a large sample of normal elderly volunteers,” Dementia 5:266-281). Tests assessing memory, attention and psychomotor speed were administered to the patient by a neuropsychologist or equivalent via a computer with a touch screen, thus testing the individual's cognitive performance rather than ability to use a computer. CANTAB tests have been proven to be highly sensitive and specific in differentiating patients with a number of neurological conditions from each other and from normal controls.

[5] = system: patients with mild cognitive impairment (MCI); assay: Five Choice Reaction Time test (CANTAB), clinical trial; type: in vivo, human; conditions: 600 mg tid
Description: as §5
110 patients were randomized; 75 were administered ABPA and 35 were administered placebo (56% men; mean age: 74 years).
The Five Choice Reaction Time test measures the speed of response to the appearance of a visual stimulus. Patients rested their hand on a press-pad placed on the desk directly in front of the computer screen, holding down the press-pad until a brief yellow flash appeared in 1 of the 5 circles located at various positions around the screen. […] The computer recorded 2 measures of response speed: reaction time, which was the time taken to lift the hand from the press-pad, and movement time, which was the latency from press-pad release to the time that the screen was touched. […]

[6] = system: patients with mild cognitive impairment (MCI); assay: Rapid Visual Information Processing (RVIP) test (CANTAB), clinical trial; type: in vivo, human; conditions: 600 mg tid
Description: A clinical trial was initiated to determine the effect of the GABAB receptor antagonist, ABPA, on specific tests of cognition in non-demented older individuals with diminished memory function who met prospective criteria for mild cognitive impairment (MCI). Patients aged 60-85 with MCI enrolled in this double-blind, randomized trial. Patients were randomized to ABPA (600 mg tid) or placebo for 8 weeks. Verbal, paper and computer tests of memory and cognition were made by trained assessors at baseline (before administration of ABPA or placebo) and after 2, 5, and 8 weeks of treatment. Among these were selected tests from the Cambridge Neuropsychological Test Automated Battery (CANTAB), a computerized battery of tests for neuropsychological evaluation (Robbins et al., 1994, “Cambridge Neuropsychological Test Automated Battery (CANTAB): A factor analytic study of a large sample of normal elderly volunteers,” Dementia 5:266-281). […]
The Rapid Visual Information Processing (RVIP) test is a test of sustained attention with a small working memory component. […] Responses were recorded with a button press. Reaction time, or mean hit latency, for all correct responses was recorded, as were additional signal detection measures (e.g., total hits, total misses and total false alarms). […]

GABAC receptor = conditions: reported in U.S. Pat. No. 6,632,806; cited from earlier work
[7] = system: wildtype mice (C3H/HeSNJ); assay: Open field test, wildtype mice; type: in vivo, mouse; conditions: for locomotor activity of wildtype controls: final 30 min
From the text: as §1, §2
as §3, with “The washout period between tests ranged from 3-7 days.” left out, “An effect was considered significant if p<0.05. Outliers that fell above and below two standard deviations away from the mean were removed from the final analysis.” left out
as §4, with “Repeated measure ANOVA found a significant genotype and drug interaction over both time periods.” left out

[8] = system: coloboma mutant mice (Cm/+); assay: Open field test, coloboma mutant mice; type: in vivo, mouse; conditions: parallel experiments

## CNCC[C@@H](Oc1ccccc1C)c1ccccc1 [atomoxetine]
Wildtype mice
  activity levels of wildtype mice: without affecting activity levels
Coloboma mice (Cm/+)
  activity levels / hyperactivity of coloboma mice: reduces hyperactivity
[1]; 0.1 mg/kg i.p., p=0.06
  frequency of zone crossings: strong trend to decreasing the zone crossings
[1]; 0.1 mg/kg i.p., final 30 min of 60-min session, vs saline-treated Cm mutants, p=0.03
  total distance traveled: significantly decreased total distance traveled

## COC(=O)C(c1ccccc1)C1CCCCN1 (stereo not drawn) [methylphenidate]
[2]
  performance in the RVIP test: improve performance in the RVIP test
Wildtype mice
  activity levels of wildtype mice: increasing locomotor activity
Coloboma mice (Cm/+)
  activity levels / hyperactivity of coloboma mice: failed to normalize the hyperactivity

## NCCCCC(=O)O [5-AVA]
[3]
  dopamine release in the striatum: increase dopamine release in the striatum

## NCC(CC(=O)O)c1ccc(Cl)cc1 (stereo not drawn) [baclofen]
[3]
  dopamine release in the striatum: decrease in striatal dopamine

## CCOC(OCC)P(=O)(O)CCCN [CGP 35348]
[4]
  burst firing of VTA dopamine neurons: long-lasting increase in burst firing

## CCCCP(=O)(O)CCCN [ABPA, 3-aminopropyl-(n-butyl)-phosphinic acid]
Patients with MCI
  psychomotor speed: significant improvements in psychomotor speed
[5]; 8 weeks, p=0.002 vs placebo (+9.4)
  mean reaction time, change compared to baseline: −19.7 milliseconds
[5]; Week 2, p=0.074 vs placebo
  reaction time vs baseline: Decreased reaction time
[5]; Week 5, p=0.070 vs placebo
  reaction time vs baseline: Decreased reaction time
[1]; 0.3 mg/kg i.p., p=0.04, to within range of saline-treated wildtype
  frequency of zone crossings: significant decrease in the frequency of zone crossings
[1]; 0.3 mg/kg i.p., p=0.07
  total distance traveled / locomotor activity: strong trend to decreasing the activity
[1]; 3 mg/kg i.p., p=0.03
  total distance traveled / locomotor activity: significantly decreased locomotor activity levels
[1]; 3 mg/kg i.p., p=0.06
  frequency of zone crossings: strong trend to decreasing the zone crossings
[1]; 30 mg/kg i.p., p=0.03
  total distance traveled / locomotor activity: significantly decreased locomotor activity levels
[1]; 30 mg/kg i.p., p=0.04, to within range of saline-treated wildtype
  frequency of zone crossings: significant decrease in the frequency of zone crossings
[6]; Week 5, p=0.03 vs placebo (+15.0)
  mean hit latency, mean change from Baseline: -37.3 ms
[6]; Week 8, p=0.02 vs placebo (−5.9)
  mean hit latency, mean change from Baseline: -61.6 ms
GABAC receptor
  GABAC receptor antagonism: antagonize
[7]; 3 mg/kg i.p.
  locomotor activity of wildtype controls: no effect on the activity of wildtype controls
[7]; 30 mg/kg i.p.
  locomotor activity of wildtype controls: no effect on the activity of wildtype controls

## C[C@H](N)Cc1ccccc1 [d-amphetamine, dextro-amphetamine]
Wildtype mice
  activity levels of wildtype mice: profound increases in activity
Coloboma mice (Cm/+)
  activity levels / hyperactivity of coloboma mice: reduced
[8]; 0.5 mg/kg
  activity in coloboma mice: did not reduce activity
[8]; 1 mg/kg
  activity in coloboma mice: did not reduce activity
[8]; 4 mg/kg
  activity in coloboma mice: did not reduce activity
  frequency of rearing: did reduce the frequency of rearing
[7]; parallel experiments
  activity in control (wildtype) mice: did increase activity
  rearing frequency in control (wildtype) mice: no effect on rearing frequency
